In patent US20250042922A1, “KRAS MODULATING COMPOUNDS” (priority 2023, published 2025) one finds EC50 data, which are given here for 5 molecules.

In assay [1] the test system is cellular pERK in MIA-PaCa-2 (KRAS-G12C) cells. The experiment in a line: Cell based pERK assay, MIA-PaCa-2. To be noted: Homo sapiens; MIA-PaCa-2 (KRAS-G12C), 2 hours incubation, HTRF phospho-ERK1/2; read-out: MIAPaCa2 pERK EC50. The procedure:
(§1) Compounds were tested in a 384-well assay format for their ability to inhibit cellular pERK in Kuramochi (WT KRAS), MIA-PaCa-2 (KRAS-G12C), ASPC-1 (KRAS G12D), and NCI-H441 (KRAS-G12V) cell-lines. Compounds were serially diluted (1:3) in DMSO. On day −1, 80 μL of cells were plated per well in the 384 well tissue-culture plates (Greiner: Cat #781080) to seed 5000 cells per wells of AsPC-1 or 7500 cells of MIA-PaCa-2, NCI-H441, and Kuramochi cell lines in RPMI (Corning: Cat #10-040-CM) with 10% fetal bovine serum (FBS) (HyClone: Cat #SH30071-03) and 1× penicillin-streptomycin-glutamate (PSG) (Corning: Cat #30-009-CI) for […] and Kuramochi cell lines and DMEM (Corning: Cat #15-018-CM) with 10% FBS and 1×PSG for MIA-PaCa-2 cell line. The plates were then incubated overnight at 37° C. and 5% CO2. On day 0, 400 nL of compound/well was added into the cell plates and mixed 5 times by pipetting using a Beckmann Biomek FX. The cell plates were then incubated for 2 hours at 37° C. and 5% CO2. HTRF Advanced Phospho-ERK1/2 (THR202/TYR204) Detection Kits (PerkinElmer: Cat #64AERPEG) were used to prepare the lysis and detection solution according to manufacturer protocol. Following the 2 hour incubation, 70 μL of medium was aspirated from the plates and 10 uL of lysis and detection solution was added to the plates using a Biotek EL406 washer and dispenser. Plates were sealed and stored overnight at room temperature. HTRF ratio (665 nm/615 nm) was read by Envision multimode reader (PerkinElmer) the next day. The TR-FRET ratios were normalized to a positive (saturating concentration of known inhibitor) and negative (DMSO) control and plotted against the log of compound concentration.

Assay [2] relates to cellular pERK in Kuramochi (WT KRAS) cells. The experiment in a line: Cell based pERK assay, Kuramochi. To be noted: Kuramochi (WT KRAS), 2 hours incubation, HTRF phospho-ERK1/2; read-out: Kuramochi pERK EC50. The procedure:
as §1
(In general: In TR-FRET formats the signal depends on donor and acceptor labels being close together.)

The test system of assay [3] is cellular pERK in ASPC-1 (KRAS G12D) cells. Put plainly: Cell based pERK assay, ASPC-1. To be noted: Homo sapiens, ASPC1; ASPC-1 (KRAS G12D), 2 hours incubation, HTRF phospho-ERK1/2; read-out: AsPC1 pERK EC50. As for the experimental part: as §1
The test system of assay [4] is cellular pERK in NCI-H441 (KRAS-G12V) cells. Put plainly: Cell based pERK assay, NCI-H441. To be noted: Homo sapiens; NCI-H441 (KRAS-G12V), 2 hours incubation, HTRF phospho-ERK1/2; read-out: H441 PERK EC50. The procedure:
as §1

On to `C#Cc1c(F)c(F)cc2cc(N)cc(-c3nc4c5c(nc(OCC67CCCN6CCC7)nc5c3F)N3C[C@@]5(F)CC[C@](F)(N5)[C@@H]3CC4)c12` [Example 4-35, 5-ethynyl-6,7-difluoro-4-((5aS,6R,9S)-1,6,9-trifluoro-12-((tetrahydro-1H-pyrrolizin-7a(5H)-yl)methoxy)-4,5,5a,6,7,8,9,10-octahydro-3,10a,11,13,14-pentaaza-6,9-methanonaphtho[1,8-ab]heptalen-2-yl)naphthalen-2-amine], for which the EC50 (in general, the concentration at which the effect is half-maximal) in assay [1] was 0.787 nM; in assay [2], 3.69 nM; in assay [3] it was 33.7 nM; in assay [4] it was 5.32 nM.

`C#Cc1c(F)ccc2cc(N)cc(-c3nc4c5c(nc(OC[C@@]67CCCN6CC(=C)C7)nc5c3F)N3C[C@@]5(F)CC[C@](F)(N5)[C@H]3CCC4)c12` [Example 4-38, 5-ethynyl-6-fluoro-4-((6aR,7R,10S)-1,7,10-trifluoro-13-(((S)-2-methylenetetrahydro-1H-pyrrolizin-7a(5H)-yl)methoxy)-5,6,6a,7,8,9,10,11-octahydro-4H-3,11a,12,14,15-pentaaza-7,10-methanocyclohepta[4,5]cycloocta[1,2,3-de]naphthalen-2-yl)naphthalen-2-amine]: the EC50 in assay [1] came out at 0.134 nM; in assay [2], 2.69 nM; in assay [3] it was 2.2 nM; in assay [4], 1.01 nM.

`C#Cc1c(F)ccc2cc(N)cc(-c3nc4c5c(nc(OC[C@@]67CCCN6CC(=C)C7)nc5c3F)N3C[C@@]5(F)CC[C@](F)(N5)[C@@H]3[C@@H](C)C4)c12` [Example 4-40, 5-ethynyl-6-fluoro-4-((5S,5aS,6R,9S)-1,6,9-trifluoro-5-methyl-12-(((S)-2-methylenetetrahydro-1H-pyrrolizin-7a(5H)-yl)methoxy)-4,5,5a,6,7,8,9,10-octahydro-3,10a,11,13,14-pentaaza-6,9-methanonaphtho[1,8-ab]heptalen-2-yl)naphthalen-2-amine]: the EC50 in assay [1] came to 0.067 nM; in assay [2] it was 1.65 nM; in assay [3] it was 0.71 nM; in assay [4], 0.38 nM.

On to `Nc1cc(-c2nc3c4c(nc(OCC56CCCN5CCC6)nc4c2F)N2C[C@@]4(F)CC[C@](F)(N4)[C@H]2CCC3)c2c(F)c(F)ccc2c1` [Example 5-4, 5,6-difluoro-4-[(4S,7R,8R)-4,7,15-trifluoro-18-(1,2,3,5,6,7-hexahydropyrrolizin-8-ylmethoxy)-2,13,17,19,21-pentazapentacyclo[10.7.1.14,7.02,8.016,20]henicosa-1(19),12(20),13,15,17-pentaen-14-yl]naphthalen-2-amine], for which the EC50 was 28.7 nM in assay [1], 5.01 nM in assay [2], 416 nM in assay [3] and 104 nM in assay [4].

For `CCc1c(F)ccc2cc(O)cc(-c3nc4c5c(nc(OCC67CCCN6CCC7)nc5c3F)N3C[C@@]5(F)CC[C@](F)(N5)[C@H]3CCC4)c12` [Example 6-1, 5-ethyl-6-fluoro-4-((6aR,7R,10S)-1,7,10-trifluoro-13-((tetrahydro-1H-pyrrolizin-7a(5H)-yl)methoxy)-5,6,6a,7,8,9,10,11-octahydro-4H-3,11a,12,14,15-pentaaza-7,10-methanocyclohepta[4,5]cycloocta[1,2,3-de]naphthalen-2-yl)naphthalen-2-ol], the EC50 was 1.52 nM in assay [1], 3.55 nM in assay [2], 31.8 nM in assay [3] and 19.4 nM in assay [4].
